Source: US4447455A, “Oral urolithiasis remedy” (Madaus and Company, priority 1982, dated 1984)
“Also recorded” adds a separate entry of the source.

How the values were obtained:
[1] = overall summary of pharmacological and toxicological tests; assay type: in vivo
[2] = acute toxicity / tolerability in the rat; assay type: in vivo; settings: alizarin, up to 400 mg/kg
[3] = system: oxalate urolithiasis; experiment: therapeutic use in oxalate urolithiasis (general statements); assay type: in vivo, human; settings: general statement
[4] = in vitro crystallization of calcium oxalate
[5] = acute toxicity / tolerability in the mouse; assay type: in vivo; settings: alizarin, one gram per kilogram
[6] = system: edema of the paws of rats; experiment: anti-inflammatory action: edema of the paws induced by viscarin-carrageenin; assay type: in vivo, rat; settings: AMDK 600 mg/kg p.o.; for Edema volume: 10 animals
Protocol: The possibility of any effect on inflammatory reactions was tested on edema of the paws of rats (groups of ten rats each) induced by viscarin-carrageenin. […] The measurement of the course of the edema was performed at 3, 5, 7 and 24 hours after the edematization. […] Where the variances between the experimental and control groups were unequal, the more rigorous t test (according to SNEDECOR) was applied for the judgment.

| Compound | tolerance in the acute toxicity test [1] | tolerance of acute administration [2] | effect on the formation of stones [3] | effectiveness in treatment of urolithiasis [3] | tolerance [3] | action on the crystallization of calcium oxalate [4] | tolerance of acute administration [5] | Percentage of inhibition (edema) ([6]; 3 hours after edematization) [Percentage] | Edema volume ([6]; 3 hours after edematization) [mL] | Percentage of inhibition (edema) ([6]; 5 hours after edematization) [Percentage] | Edema volume ([6]; 5 hours after edematization) [mL] | Percentage of inhibition (edema) ([6]; 7 hours after edematization) [Percentage] | Edema volume ([6]; 7 hours after edematization) [mL] | Percentage of inhibition (edema) ([6]; 24 hours after edematization) [Percentage] | Edema volume ([6]; 24 hours after edematization) [mL] |
| --- | --- | --- | --- | --- | --- | --- | --- | --- | --- | --- | --- | --- | --- | --- | --- |
| O=C1c2ccccc2C(=O)c2c1ccc(O)c2O [alizarin] | extremely well tolerated | tolerated without producing symptoms | decided inhibitive effect on the formation of stones | decidedly effective | easily tolerated; also recorded: very well tolerated | inhibiting action on the crystallization of calcium oxalate | tolerated without producing symptoms | – | – | – | – | – | – | – | – |
| Sodium escinate | – | – | – | – | – | – | – | 41.4 | 46.5 | 37.2 | 50.7 | 39.1 | 46.6 | 40.9 | 14.9 |
